For 43 compounds, logP and chromatographic logP results are on record in patent publication US8946234B2, “Halogen-substituted compounds” (Bayer CropScience AG, priority 2008, dated 2015).

A short description of the first data set: physchem.
Conditions: not given
The format is physicochemical. As for the experimental part: ^a) Note regarding the determination of the log P values and mass detection: The log P values given were determined in accordance with EEC Directive 79/831 Annex V.A8 by HPLC (High Performance Liquid Chromatography) on a phase inversion column (C18). Agilent 1100 LC system; 50*4.6 Zorbax Eclipse Plus C18 1.8 micron; eluent A: acetonitrile (0.1% formic acid); eluent B: water (0.09% formic acid); linear gradient from 10% acetonitrile to 95% acetonitrile in 4.25 min, then 95% acetonitrile for a further 1.25 min; oven temperature 55° C.; flow: 2.0 ml/min. The mass detection is carried out via an Agilend MSD system.
Take `Cn1nc(C(F)(F)C(F)(F)F)c(C(F)(F)F)c1C(=O)Nc1ccc(I)c(C(=O)NCc2ccccc2)c1` [Ik-184]: the logP is listed as 4.07^a).
Still for that read-out and setting: the result for `O=C(NCc1ccccc1)c1cc(NC(=O)c2cnc(C(F)(F)C(F)(F)F)nc2C(F)(F)F)ccc1Cl` [Ib-11] reads 3.78^a); that for `O=C(NCC=CCl)c1cc(NC(=O)c2cnc(C(F)(F)C(F)(F)C(F)(F)F)nc2C(F)(F)F)ccc1Cl` [Ib-17], 3.92^a).
For `O=C(NCc1ccccc1)c1cc(NC(=O)c2ncc(C(F)(F)F)cc2Cl)ccc1Cl` [Ii-5], the logP is recorded as 3.17^a).
On to `Cn1nc(C(F)(F)C(F)(F)F)c(C(F)(F)F)c1C(=O)Nc1ccc(Cl)c(C(=O)OCC(=O)NC(N)=O)c1` [Ik-110], for which the logP was 3.10^a).
The same measure, in the same setting: the figure for `CC(NC(=O)c1cc(NC(=O)c2c(C(F)(F)F)c(C(F)(F)C(F)(F)F)nn2C)ccc1F)C(F)(F)F` (centres unmarked) [Ik-161] is 3.89^a); for `O=C(NC1CC1)c1cc(NC(=O)c2c(C(F)(F)F)c(C(F)(F)C(F)(F)F)nn2-c2ccccc2)ccc1Cl` [Ik-176] it is 4.00^a); for `Cn1nc(C(F)(F)C(F)(F)F)c(C(F)(F)F)c1C(=O)Nc1ccc([N+](=O)[O-])c(C(=O)NC2CC2)c1` [Ik-180] it is 3.27^a).
Consider `O=C(NCC(F)(F)F)c1cc(NC(=O)c2cnc(C(F)(F)C(F)(F)F)nc2C(F)(F)C(F)(F)F)ccc1Cl` [Ib-34], for which the logP is reported as 3.94^a).
With `Cn1nc(C(F)(F)C(F)(F)F)c(C(F)(F)F)c1C(=O)Nc1ccc(Cl)c(C(=O)NCCF)c1` [Ik-88], the logP was 3.21^a).
Turning to `Cn1nc(C(F)(F)C(F)(F)F)c(C(F)(F)F)c1C(=O)Nc1cc(C(=O)NCC(F)(F)F)c(F)cc1F` [Ik-146], the logP is given as 3.64^a).
As for `O=C(NCC(F)(F)F)c1cc(NC(=O)c2ccc(C(F)(F)F)nc2Cl)ccc1Cl` [Ir-9], the logP is on record as 2.82^a).
Still for that read-out and setting: the figure for `O=C(NCC=CCl)c1cc(NC(=O)c2cnc(C(F)(F)C(F)(F)F)nc2C(F)F)ccc1Cl` [Ib-32] is 3.29^a); for `CC(NC(=O)c1cc(NC(=O)c2c(I)c(C(F)(F)C(F)(F)C(F)(F)C(F)(F)F)nn2C)ccc1Cl)C1CC1` (centres unmarked) [Ik-267] it is 4.38^a).
On the same count and under the same terms, the figure for `Cn1nc(C(F)(F)C(F)(F)F)c(C(F)(F)F)c1C(=O)Nc1cc(Br)c(Cl)c(C(=O)NCC(F)(F)F)c1` [Ik-178] is 4.14^a); for `Cn1nc(C(F)(F)F)c(Cl)c1C(=O)Nc1ccc(Cl)c(C(=O)NC2CC2)c1` [Ik-18] it is 2.77^a); for `Cn1nc(C(F)(F)C(F)(F)F)c(C(F)(F)F)c1C(=O)Nc1cc(C(=O)NCC(F)(F)F)c(Cl)cc1Cl` [Ik-171] it is 3.97^a).
Regarding `O=C(NCC(F)(F)F)c1cc(NC(=O)c2ncc(C(F)(F)F)cc2Cl)ccc1Cl` [Ii-3], the logP is reported as 2.86^a).
Still for that read-out and setting: the figure for `Cn1nc(C(F)(F)C(F)(F)F)c(C(F)(F)F)c1C(=O)Nc1cc(C(=O)NC2CC2)c(Cl)cc1F` [Ik-143] is 3.39^a).
On the same count and under the same terms, the figure for `CC(C)(C)n1nc(C(F)(F)C(F)(F)F)c(C(F)(F)F)c1C(=O)Nc1ccc(Cl)c(C(=O)NC2CC2)c1` [Ik-167] is 4.17^a); for `Cn1nc(C(F)(F)C(F)(F)F)c(C(F)(F)F)c1C(=O)Nc1ccc(Cl)c(C(=O)NCc2ccccc2)c1` [Ik-84] it is 3.90^a); for `Cn1nc(OCC(F)(F)F)c(Cl)c1C(=O)Nc1ccc(Cl)c(C(=O)NC2CC2)c1` [Ik-242] it is 2.89^a).
On the same count and under the same terms, the figure for `Cn1nc(C(F)(F)C(F)(F)F)c(C(F)(F)F)c1C(=O)Nc1cc(F)c(S(C)(=O)=O)c(C(=O)NC2CC2)c1` [Ik-194] is 2.92^a).
As for `Cn1nc(C(F)(F)C(F)(F)F)c(C(F)(F)F)c1C(=O)Nc1cccc(C(=O)NC2CC2)c1` [Ik-13], the logP is given as 3.15^a).
As for `Cn1nc(C(F)(F)C(F)(F)F)c(C(F)(F)F)c1C(=O)Nc1cc(C(=O)NCc2ccccc2)c(Cl)cc1F` [Ik-142], the logP is listed as 4.00^a).
Same read-out and setting: the result for `Cn1nc(OC(F)F)c(Cl)c1C(=O)Nc1ccc(Cl)c(C(=O)NC2CC2)c1` [Ik-238] reads 2.52^a).
Still for that read-out and setting: the figure for `Cn1nc(C(F)(F)C(F)(F)F)c(C(F)(F)F)c1C(=O)Nc1ccc(Cl)c(C(=O)NCC(F)F)c1` [Ik-86] is 3.41^a); for `CNC(=O)c1cc(NC(=O)c2ccc(C(F)(F)F)nc2C)ccc1Cl` [Ir-5] it is 1.97^a); for `Cn1nc(C(F)(F)C(F)(F)F)c(C(F)(F)F)c1C(=O)Nc1cc(Br)cc(C(=O)NCc2ccccc2)c1` [Ik-222] it is 4.35^a).
For `Cn1nc(C(F)(F)C(F)(F)F)c(C(F)(F)F)c1C(=O)Nc1cc(F)c(I)c(C(=O)NCC(F)(F)F)c1` [Ik-226], the logP is recorded as 3.95^a).
Turning to `C=CCNC(=O)c1cc(NC(=O)c2c(C(F)(F)F)c(C(F)(F)C(F)(F)F)nn2C)ncc1Cl` [Ik-316], the logP is listed as 3.38^a).
Take `CSCCNC(=O)c1cc(NC(=O)c2c(C(F)(F)F)c(C(F)(F)C(F)(F)F)nn2C)ccc1Cl` [Ik-82]: the logP was 3.57^a).
For `Cn1nc(C(F)(F)C(F)(F)F)c(C(F)(F)F)c1C(=O)Nc1cc(Br)c(Br)c(C(=O)NC2CC2)c1` [Ik-207], the logP is given as 3.84^a).
Regarding `CSc1c(Cl)cc(NC(=O)c2c(C(F)(F)F)c(C(F)(F)C(F)(F)F)nn2C)cc1C(=O)NC1CC1` [Ik-201], the logP is 3.80^a).
As to `Cn1nc(C(F)(F)F)c(Br)c1C(=O)Nc1ccc(Cl)c(C(=O)NCC=CCl)c1` [Ik-22], the logP is recorded as 3.20^a).

The data set is the same for the next values; noted with them: HPLC method a), eluent acetonitrile/water with formic acid; read-out: logP.
For `Cn1nc(C(F)(F)C(F)(F)C(F)(F)C(F)(F)F)cc1C(=O)O` [1-Methyl-3-nonafluorobutyl-1H-pyrazole-5-carboxylic acid], the chromatographic logP was determined as 3.01.

The data set is the same for the next values; noted with them: HPLC phase inversion (reversed-phase) C18 column, HPLC method a), eluent acetonitrile/water with formic acid; read-out: logP.
Turning to `Cn1nc(C(F)(F)C(F)(F)F)c(C(F)(F)F)c1C(=O)Nc1cc(C(=O)O)c(Cl)cn1` [Ik-129, 5-Chloro-2-({[1-methyl-3-(pentafluoroethyl)-4-(trifluoromethyl)-1H-pyrazol-5-yl]carbonyl}amino)isonicotinic acid], the chromatographic logP was 2.82.
Still for that read-out and setting: the result for `COC(=O)c1[nH]nc(C(F)(F)C(F)(F)F)c1C(F)(F)F` [Methyl 3-(pentafluoroethyl)-4-(trifluoromethyl)-1H-pyrazole-5-carboxylate] reads 3.02; that for `Cn1nc(C(F)(F)C(F)(F)F)c(Br)c1C(=O)O` [4-Bromo-1-methyl-3-pentafluoroethyl-1H-pyrazole-5-carboxylic acid], 4.69; that for `CCOC(=O)c1c(C)nc(C(F)(F)C(F)(F)F)nc1C` [Ethyl 4,6-dimethyl-2-(pentafluoroethyl)pyrimidine-5-carboxylate], 3.68.
Turning to `Cn1nc(C(F)(F)OC(F)(F)OC(F)(F)F)c(Br)c1C(=O)O` [4-Bromo-3-{[(difluoro(trifluoromethoxy)methoxy](difluoro)methyl}-1-methyl-1H-pyrazole-5-carboxylic acid], the chromatographic logP worked out at 3.56.
Still for that read-out and setting: the figure for `Cn1ccc(C(F)(Cl)C(F)(F)F)n1` (centres unmarked) [1-Methyl-3-(1-chloro-1,2,2,2-tetrafluoroethyl)-1H-pyrazole] is 2.46.

The same data set, now with this note: HPLC phase inversion (reversed-phase) C18 column, HPLC on C18 phase inversion column, method a); read-out: logP.
As for `Cn1nc(C(F)(F)C(F)(F)F)c(C(F)(F)F)c1C(=O)Nc1cc(C(=O)O)c(Cl)cn1` [Ik-129, 5-Chloro-2-({[1-methyl-3-(pentafluoroethyl)-4-(trifluoromethyl)-1H-pyrazol-5-yl]carbonyl}amino)isonicotinic acid], the chromatographic logP stood at 2.82.

The data set is the same for the next values; noted with them: logP.
The compound `Cn1nc(C(F)(F)OC(F)(F)OC(F)(F)F)cc1C(=O)O` [3-{[Difluoro(trifluoromethoxy)methoxy](difluoro)methyl}-1-methyl-1H-pyrazole-5-carboxylic acid] registered a chromatographic logP of 3.38.
